Where a name gives a salt, the structure may show the parent alone.
Target: T1, human beta-3-adrenergic receptor (Homo sapiens, UniProt P13945)
T1 construct: stably express full-length human beta-3-adrenergic receptor; expressed in transfected cells; host or cells: Chinese hamster ovary (CHO) cells
Experiment: cAMP production (beta-3 agonist activity) in CHO cells stably expressing human beta-3-adrenergic receptor, cAMP SPA
Type: cell-based
Conditions: CHO cells expressing full-length human beta-3-adrenergic receptor, 30 min incubation, 10 μM to 3 nM, read-out: Beta-3 Agonistic Activity: Compounds with EC50 values ≦1 μM
Procedure: Chinese hamster ovary (CHO) cells that stably express full-length human beta-3-adrenergic receptor (Granneman et al., Mol. Pharmacol. 44:264-270, 1993) can be used in the following procedure. The cell line is grown in 90% F12 nutrient mixture (HAM), 10% fetal bovine serum, 100 units/ml penicillin G sodium, […] streptomycin sulfate, and 2 mM L-glutamine at 37° C. in 95% air and 5% CO2. The transfected cell line is maintained with G-418 (800 μg/ml).
To test the agonist activity, cells are exposed to test compound and then assayed for cAMP production. CHO cells (100 μl) are plated at 5×10^4 cells/well of a 96-well plate (Costar, Cambridge, Mass.) to achieve 70% confluency the next day. After overnight incubation at 37° C., media is removed and the cells are treated for 30 minutes at 37° C. with KRP buffer (120 mM NaCl, 5.1 mM KCl, 0.6 mM MgSO4.7H2O, 0.8 mM CaCl2.H2O, […] phosphate buffer, […] Hepes pH 7.4)+[…] IBMX ([…]), +1% DMSO, +/− test compounds ([…]). Test compounds are assayed from 10 μM to 3 nM with 3-fold serial dilutions. The control agonist, isoproterenol (10 mM stock in 1.1 mM ascorbate), is assayed by 3-fold dilution beginning at 1 μM. After a 30-minute incubation with the test compounds, the buffer/compound mixture is removed. The cells are lysed and cAMP levels are measured using the cAMP SPA screening assay system (Amersham, Arlington Heights, Ill.). The cAMP values are then plotted to determine the EC50 of each compound tested.

T1 sequence (P13945 whole entry): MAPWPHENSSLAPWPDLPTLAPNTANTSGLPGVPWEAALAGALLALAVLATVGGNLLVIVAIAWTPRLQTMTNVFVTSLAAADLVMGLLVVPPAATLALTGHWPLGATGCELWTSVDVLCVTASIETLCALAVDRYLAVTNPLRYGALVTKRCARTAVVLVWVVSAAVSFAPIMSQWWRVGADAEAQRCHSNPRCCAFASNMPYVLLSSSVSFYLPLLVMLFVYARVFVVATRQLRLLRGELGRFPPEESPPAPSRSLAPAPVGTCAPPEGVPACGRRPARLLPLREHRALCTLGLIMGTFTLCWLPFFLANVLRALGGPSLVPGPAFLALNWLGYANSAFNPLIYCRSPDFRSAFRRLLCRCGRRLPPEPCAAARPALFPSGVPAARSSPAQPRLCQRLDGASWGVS

SMILES | EC50 [nM]
COc1cccc(C(=O)NS(=O)(=O)c2ccc(-c3ccc4c(c3)CC[C@H](CNC[C@H](O)c3cccnc3)O4)cc2)c1 [Example 293, 4-[(2R)-2-({[(2R)-2-hydroxy-2-(3-pyridinyl)ethyl]amino}methyl)-3,4-dihydro-2H-chromen-6-yl]-N-(3-methoxybenzoyl)benzenesulfonamide] | ≤ 1000
O=C(NS(=O)(=O)c1ccc(-c2ccc3c(c2)CC[C@H](CNC[C@H](O)c2cccnc2)O3)cc1)c1ccccc1 [Example 294, N-benzoyl-4-[(2R)-2-({[(2R)-2-hydroxy-2-(3-pyridinyl)ethyl]amino}methyl)-3,4-dihydro-2H-chromen-6-yl]benzenesulfonamide] | ≤ 1000
O=C(NS(=O)(=O)c1ccc(-c2ccc3c(c2)CC[C@H](CNC[C@H](O)c2cccnc2)O3)cc1)c1ccc(F)cc1 [Example 295, N-(4-fluorobenzoyl)-4-[(2R)-2-({[(2R)-2-hydroxy-2-(3-pyridinyl)ethyl]amino}methyl)-3,4-dihydro-2H-chromen-6-yl]benzenesulfonamide] | ≤ 1000
Cc1ccc(C(=O)NS(=O)(=O)c2ccc(-c3ccc4c(c3)CC[C@H](CNC[C@H](O)c3cccnc3)O4)cc2)cc1 [Example 296] | ≤ 1000
Cc1cccc(C(=O)NS(=O)(=O)c2cccc(-c3ccc4c(c3)CC[C@H](CNC[C@H](O)c3cccnc3)O4)c2)c1 [Example 297] | ≤ 1000
COc1cccc(C(=O)NS(=O)(=O)c2cccc(-c3ccc4c(c3)CC[C@H](CNC[C@H](O)c3cccnc3)O4)c2)c1 [Example 298] | ≤ 1000
Cc1ccc(C(=O)NS(=O)(=O)c2cccc(-c3ccc4c(c3)CC[C@H](CNC[C@H](O)c3cccnc3)O4)c2)cc1 [Example 299] | ≤ 1000
COc1ccc(C(=O)NS(=O)(=O)c2ccc(-c3ccc4c(c3)CC[C@H](CNC[C@H](O)c3cccnc3)O4)cc2)cc1 [Example 300, 4-[(2R)-2-({[(2R)-2-hydroxy-2-(3-pyridinyl)ethyl]amino}methyl)-3,4-dihydro-2H-chromen-6-yl]-N-(4-methoxybenzoyl)benzenesulfonamide] | ≤ 1000
O=C(NS(=O)(=O)c1cccc(-c2ccc3c(c2)CCC(CNC[C@H](O)c2cccnc2)O3)c1)c1ccc(Cl)cc1 (stereo partly drawn) [Example 301] | ≤ 1000
O=C(NS(=O)(=O)c1cccc(-c2ccc3c(c2)CC[C@H](CNC[C@H](O)c2cccnc2)O3)c1)c1cccc(Cl)c1 [Example 302] | ≤ 1000
COc1ccc(C(=O)NS(=O)(=O)c2cccc(-c3ccc4c(c3)CCC(CNC[C@H](O)c3cccnc3)O4)c2)cc1 (stereo partly drawn) [Example 303] | ≤ 1000
O=C(CS(=O)(=O)c1ccccc1)c1ccc(-c2ccc3c(c2)CC[C@H](CNC[C@H](O)c2cccnc2)O3)cc1 [Example 308, 1-{4-[(2R)-2-({[(2R)-2-hydroxy-2-(3-pyridinyl)ethyl]amino}methyl)-3,4-dihydro-2H-chromen-6-yl]phenyl}-2-(phenylsulfonyl)ethanone Dihydrochloride] | ≤ 1000
Cc1ccc(S(=O)(=O)CC(=O)c2ccc(-c3ccc4c(c3)CC[C@H](CNC[C@H](O)c3cccnc3)O4)cc2)cc1 [Example 309] | ≤ 1000
O=C(Nc1ccccc1)NS(=O)(=O)c1ccc(-c2ccc3c(c2)CC[C@H](CNC[C@H](O)c2cccnc2)O3)cc1 [Example 328, 3-[(1R)-2-({[(2R)-6-(4-{[(anilinocarbonyl)amino]sulfonyl}phenyl)-3,4-dihydro-2H-chromen-2-yl]methyl}amino)-1-hydroxyethyl]pyridine] | ≤ 1000
O=C(NC1CCCCC1)NS(=O)(=O)c1ccc(-c2ccc3c(c2)CC[C@H](CNC[C@H](O)c2cccnc2)O3)cc1 [Example 329, 3-{(1R)-2-[({(2R)-6-[4-({[(cyclohexylamino)carbonyl]amino}sulfonyl)phenyl]-3,4-dihydro-2H-chromen-2-yl}methyl)amino]-1-hydroxyethyl}pyridine] | ≤ 1000
Cc1cc(Cl)ccc1NC(=O)NS(=O)(=O)c1ccc(-c2ccc3c(c2)CC[C@H](CNC[C@H](O)c2cccnc2)O3)cc1 [Example 330, 3-((1R)-2-{[((2R)-6-{4-[({[(4-chloro-2-methylphenyl)amino]carbonyl}amino)sulfonyl]phenyl}-3,4-dihydro-2H-chromen-2-yl)methyl]amino}-1-hydroxyethyl)pyridine] | ≤ 1000
O=C(Nc1ccccc1)NS(=O)(=O)c1cccc(-c2ccc3c(c2)CC[C@H](CNC[C@H](O)c2cccnc2)O3)c1 [Example 332] | ≤ 1000

Continued, values first:

EC50 [nM] | SMILES
≤ 1000 | CC(C)C(=O)NS(=O)(=O)c1ccc(-c2ccc3c(c2)CC[C@H](CNC[C@H](O)c2cccnc2)O3)cc1 [Example 290]
≤ 1000 | COCC(=O)NS(=O)(=O)c1ccc(-c2ccc3c(c2)CC[C@H](CNC[C@H](O)c2cccnc2)O3)cc1 [Example 291]
≤ 1000 | CC(C)(C)C(=O)NS(=O)(=O)c1ccc(-c2ccc3c(c2)CC[C@H](CNC[C@H](O)c2cccnc2)O3)cc1 [Example 292, N-(2,2-dimethylpropanoyl)-4-[(2R)-2-({[(2R)-2-hydroxy-2-(3-pyridinyl)ethyl]amino}methyl)-3,4-dihydro-2H-chromen-6-yl]benzenesulfonamide]
≤ 1000 | CN(C)CC(=O)NS(=O)(=O)c1cccc(-c2ccc3c(c2)CC[C@H](CNC[C@H](O)c2cccnc2)O3)c1 [Example 304]
≤ 1000 | CCC(=O)NS(=O)(=O)c1cccc(-c2ccc3c(c2)CC[C@H](CNC[C@H](O)c2cccnc2)O3)c1 [Example 305]
≤ 1000 | CC1(O)C(=O)NN(c2cccc(-c3ccc4c(c3)CC[C@@H](CNC[C@H](O)c3cccnc3)O4)c2)C1=O (stereo partly drawn) [Example 314, 4-hydroxy-1-{3-[(2S)-2-({[(2R)-2-hydroxy-2-(3-pyridinyl)ethyl]amino}methyl)-3,4-dihydro-2H-chromen-6-yl]phenyl}-4-methyl-3,5-pyrazolidinedione Dihydrochloride]
≤ 1000 | Nc1ccc(-c2ccc3c(c2)CC[C@H](CNC[C@H](O)c2cccnc2)O3)nc1 [Example 317, (1R)-2-({[(2R)-6-(5-amino-2-pyridinyl)-3,4-dihydro-2H-chromen-2-yl]methyl}amino)-1-(3-pyridinyl)ethanol Tetrahydrochloride]
≤ 1000 | O=S(=O)(Nc1ccc(-c2ccc3c(c2)CC[C@H](CNC[C@H](O)c2cccnc2)O3)nc1)c1ccccc1 [Example 319, N-{6-[(2R)-2-({[(2R)-2-hydroxy-2-(3-pyridinyl)ethyl]amino}methyl)-3,4-dihydro-2H-chromen-6-yl]-3-pyridinyl}benzenesulfonamide Trihydrochloride]
≤ 1000 | O=S(=O)(Nc1ccc(-c2ccc3c(c2)CC[C@H](CNC[C@H](O)c2cccnc2)O3)nc1)c1ccc(Cl)cc1 [Example 320, 4-chloro-N-{6-[(2R)-2-({[(2R)-2-hydroxy-2-(3-pyridinyl)ethyl]amino}methyl)-3,4-dihydro-2H-chromen-6-yl]-3-pyridinyl}benzenesulfonamide]
≤ 1000 | CS(=O)(=O)Nc1ccc(-c2ccc3c(c2)CC[C@H](CNC[C@H](O)c2cccnc2)O3)nc1 [Example 321, N-{6-[(2R)-2-({[(2R)-2-hydroxy-2-(3-pyridinyl)ethyl]amino}methyl)-3,4-dihydro-2H-chromen-6-yl]-3-pyridinyl}methanesulfonamide]
≤ 1000 | O=C(Nc1ccc(-c2ccc3c(c2)CC[C@H](CNC[C@H](O)c2cccnc2)O3)nc1)c1ccccc1 [Example 322]
≤ 1000 | CC(=O)Nc1ccc(-c2ccc3c(c2)CC[C@H](CNC[C@H](O)c2cccnc2)O3)nc1 [Example 323]
≤ 1000 | Cc1ccc(NC(=O)NS(=O)(=O)c2cccc(-c3ccc4c(c3)CC[C@H](CNC[C@H](O)c3cccnc3)O4)c2)cc1 [Example 324, 3-((1R)-1-hydroxy-2-{[((2R)-6-{3-[({[(4-methylphenyl)amino]carbonyl}amino)sulfonyl]phenyl}-3,4-dihydro-2H-chromen-2-yl)methyl]amino}ethyl)pyridine Hydrochloride]
≤ 1000 | NS(=O)(=O)c1ccc(-c2ccc3c(c2)CC[C@H](CNC[C@H](O)c2cccnc2)O3)cc1 [Example 325, 4-[(2R)-2-({[(2R)-2-hydroxy-2-(3-pyridinyl)ethyl]amino}methyl)-3,4-dihydro-2H-chromen-6-yl]benzenesulfonamide]
≤ 1000 | Cc1ccc(NC(=O)NS(=O)(=O)c2ccc(-c3ccc4c(c3)CC[C@H](CNC[C@H](O)c3cccnc3)O4)cc2)cc1 [Example 326, 3-((1R)-1-hydroxy-2-{[((2R)-6-{4-[({[(4-methylphenyl)amino]carbonyl}amino)sulfonyl]phenyl}-3,4-dihydro-2H-chromen-2-yl)methyl]amino}ethyl)pyridine]
≤ 1000 | O=C(Nc1ccc(F)cc1)NS(=O)(=O)c1ccc(-c2ccc3c(c2)CC[C@H](CNC[C@H](O)c2cccnc2)O3)cc1 [Example 327, 3-((1R)-2-{[((2R)-6-{4-[({[(4-fluorophenyl)amino]carbonyl}amino)sulfonyl]phenyl}-3,4-dihydro-2H-chromen-2-yl)methyl]amino}-1-hydroxyethyl)pyridine]

Source: US6660752B2, “2,6-Substituted chroman derivatives useful as beta-3 adrenoreceptor agonists” (Bayer Pharmaceuticals Corporation, priority 2001, dated 2003)
